Broadly, the solubility is the dissolved amount per volume that the medium holds.

Data set [1] can be described thus: In vitro metabolism in monkey liver microsomes. In kind it is in vitro ADME. The source says:
In vitro metabolism of prostratin was investigated using mouse, rat, monkey, and human liver microsomes (Gentest). […] Attempts to identify the metabolite by LC/MS/MS were unsuccessful due to the low amounts present in the reaction mixtures (FIG. 1).
For orientation: Liver microsomes are vesicles of endoplasmic reticulum, rich in cytochrome P450 enzymes.

Data set [2] concerns rats. In words: Tolerability of intravenous infusion and oral doses in rats. In kind it is in vivo. How it is done:
In order to find out the best route of administration and the correct concentration of prostratin, the drug was administered as an intravenous infusion over three hours as well as a single and twice oral administration to 3 groups of rats. The goal of this experiment was to find out if greater amounts of prostratin can be administered over a longer period of time. This would enable obtaining median higher concentrations in the blood for a longer period of time that would be close to effective concentration found in in vitro studies.
(§1) The oral doses were estimated based on a maximum tolerated i.v. dose of 0.4 mg/kg from the DART work in rats, but an oral bio-availability of only 29%. Thus, the maximum tolerated i.v. dose was multiplied by three (i.e., 0.4 mg/kg times 3 equals 1.2 mg/kg as the equivalent oral dose). The purpose of the two lower oral doses (both 0.8 mg/kg, therefore a total of 1.6 mg/kg) and the infusion (0.8 mg/kg over three hours) was to see if the maximum tolerated dose could be exceeded by dividing up the oral into two times 75% the max tolerated dose or as an infusion over 3 hours.

For data set [3], the system named is cultured human peripheral blood lymphocytes. In words: Chromosomal aberrations in cultured human peripheral blood lymphocytes. It is filed as cell-based. How it is done:
The objective of this in vitro assay was to evaluate the ability of prostratin to cause structural chromosomal aberrations in cultured human lymphocytes with and without an exogenous metabolic activation system.
(§2) Dimethylsulfoxide (DMSO) was the vehicle of choice for this study. […] The stock solution and its dilutions were dosed using a dosing volume of 1% (10 μL/ml) and the vehicle control cultures were treated with 10.0 μL/ml of DMSO.
In the initial chromosomal aberrations assay, the treatment period was for 3 hours with and without metabolic activation, and cultures were harvested ˜22 hours from the initiation of treatment. Replicate cultures of human whole blood lymphocytes were incubated with test article at 23.7, 33.9, 48.4, 69.2, 98.9, 141, 202, 288, 412, 588, 840, 1200, 1720, 2450, and 3500 μg/ml with and without metabolic activation. Cultures treated with concentrations of 412, 588, 840, and 1200 μg/ml without metabolic activation and 588, 840, 1200, and 1720 μg/ml with metabolic activation were analyzed for chromosomal aberrations.
In the confirmatory chromosomal aberrations assay, the treatment period was ˜22 hours without metabolic activation and 3 hours with metabolic activation, and cultures were harvested ˜22 hours from the initiation of treatment. Replicate cultures of human whole blood lymphocytes were incubated with test article at 15.6, 31.3, 62.5, 125, 188, 250, 375, 500, 750, 1000, 1400, and 1700 μg/ml without metabolic activation and 250, 500, 1000, 1400, 1700, 2000, and 2500 μg/ml with metabolic activation. Cultures treated with concentrations of 125, 250, 500, and 1400 μg/ml without metabolic activation and 1400, 1700, 2000, and 2500 μg/ml with metabolic activation were analyzed for chromosomal aberrations.
For all treatment conditions, the vehicle and negative control cultures were within the expected range and the historical control data and the positive control cultures induced significant increases in chromosomal aberrations.

In a further data set the test system is rhesus macaque monkeys. In words: Preliminary pharmacokinetic study in monkeys (mortality). In kind it is in vivo. The conditions noted are these: intravenous bolus 0.8 mg/kg; respiratory failure shortly after injection. How it is done:
During a preliminary pharmacokinetic study, rhesus macaque monkeys were administered an intravenous bolus of prostratin at 0.4 mg/kg and 0.8 mg/kg. The monkey in 0.8 mg/kg died due a respiratory failure shortly after injection. Plasma samples from these monkeys were sent to NIH and plasma concentration of prostratin was measure along with other samples at NIH using the LC/MS/MS assay.

The nature of data set [4]: Stability in PBS (phosphate buffer saline). In kind it is physicochemical. The protocol: (§3) Prostratin is stable in plasma and buffer as well as in the stability formulation (see below) developed for in vivo studies in mice. Stability tests for prostratin in mouse and monkey plasma were done using two concentration (1 and 10 mg/ml) and two temperatures (Room Temperature (RT) and 37° C.). The only loss of drug occurred in mouse plasma after 24 hr incubation at 37° C. This represented only 14% decrease in parent drug peak area over this time frame. Prostratin is stable in PBS (phosphate buffer saline) at pH 2 and pH 7.

The nature of data set [5]: Stability of prostratin in monkey plasma. In kind it is in vitro ADME. Conditions: 1 and 10 mg/ml, RT and 37° C. How it is done:
as §3

Data set [6] concerns rats. The data set is described as follows: DART work in rats (IV injection). It is filed as in vivo. Conditions: for maximum tolerated i.v. dose: iv bolus. How it is done: Extrapolation was performed from the DART work that was all done in rats as an IV injection (not infusion). Infusions and injections are by definition 100% bio-available meaning it all gets in.
as §1

Data set [7] is described as follows: Stability of prostratin in mouse plasma. The conditions noted are these: 24 hr incubation at 37° C. It is filed as in vitro ADME. The protocol:
as §3

For a further data set, the system named is PBMCs. Conditions: alone or in conjunction with other activators; cited from earlier work.
A short description of data set [8]: Solubility limit after dosing in culture medium. It is filed as physicochemical. The conditions noted are these: plasma or biological fluid, kinetic from dmso stock, dosing volume of 1%. How it is done: as §2

Consider `CC(=O)O[C@@]12C[C@@H](C)[C@@]3(O)[C@@H](C=C(CO)C[C@]4(O)C(=O)C(C)=C[C@@H]34)[C@@H]1C2(C)C` [prostratin, 12-deoxyphorbol 13-acetate], for which the “metabolism (time-dependent loss of parent compound)” value in data set [1] is “greatest”. Further, the “Results (tolerability)” value with rats [2] (female rats, 0.8 mg/kg I.V. infusion, 3 hours) is recorded as “All animals died”; in the data set with rats [2] (female rats, 1.2 mg/kg, one oral dose), 2 out of 3 animals died; in the data set with rats [2] (female rats, 1.8 mg/kg first oral dose followed by 1.0 mg/kg after 4 hours), 2 died after first dose,; in the data set on rats [2] (male rats, 1.8 mg/kg, two oral doses 4 hours apart) it was “All animals are alive”; with rats [2] (male rats, 2.4 mg/kg, one oral dose) it was “All animals are alive”. Further, the “cells with chromosomal aberrations, polyploidy, or endoreduplication” value is “No significant increase” in [3] (confirmatory assay, ~22 hours without and 3 hours with metabolic activation, 125-1400 μg/ml without, 1400-2500 μg/ml with); “No significant increase” in data set [3] (initial assay, 3 hours with and without metabolic activation, 412-1200 μg/ml without, 588-1720 μg/ml with). In addition, in data set [3] (without and with an exogenous metabolic activation system), the “induction of chromosomal aberrations, overall” value was “negative”. In addition, the mortality result in the data set with rhesus macaque monkeys was “died”. The “stability in PBS” value in data set [4] (pH 2) and in data set [4] (pH 7) was “stable” in each case. In data set [5], the stability in plasma result is on record as “stable”. Moreover, the oral bio-availability in the data set on rats [6] was 29%. Also, the “maximum tolerated i.v. dose” value was 0.4 mg/kg in the data set with rats [6] and “Dosages in Male Rats (MTD via iv bolus dose: 0.4 mg/kg)” with rats [6] (listed as Prostratin). For the same compound, the “decrease in parent drug peak area” value in data set [7] was found to be 14%. The “individuals on suppressive HAART whose PBMCs showed stimulated HIV-1 production” value in the data set with PBMCs was 4 out of 6. In addition, in data set [8], the solubility is < 3500 µg/mL.
